Test system: diarrhea-predominant IBS subjects
Experiment: 3007 Study: open-label 52-week safety study, adverse events and withdrawals
[1] = Cilansetron 2 mg/Cilansetron 2 mg
[2] = Cilansetron 2 mg/Cilansetron 2 mg, N=257
[3] = Cilansetron 2 mg/Cilansetron 2 mg, N=257, % of appropriate gender
[4] = Cilansetron 2 mg/Cilansetron 2 mg, gender-specific

## Cc1nccn1C[C@H]1CCc2c(c3cccc4c3n2CCC4)C1=O [cilansetron, (R)-(−)-4,5,6,8,9,10-hexahydro-10-[(2-methyl-1H-imidazol-1-yl)methyl]-11H-pyrido-[3,2,1-jk]-carbazol-11-one]
[1]
  TEAE: Upper Limb Fractures and Dislocations: 0 n (%)
  TEAE: Upper Respiratory Tract Infection NOS: 18 (7%) n (%)
  TEAE: Upper Respiratory Tract Infections - Pathogen Class Unspecified: 42 (16%) n (%)
  TEAE: Urinalysis NEC: 10 (4%) n (%)
  TEAE: Urinary Tract Infection NOS: 16 (6%) n (%)
  TEAE: Urinary Tract Infections: 17 (7%) n (%)
  TEAE: Urine Analysis Abnormal NOS: 1 (<1%) n (%)
  TEAE: Urine Bilirubin Increased: 0 n (%)
  TEAE: Urine Ketone Body Present: 3 (1%) n (%)
  TEAE: Urine Leukocyte Esterase Positive: 3 (1%) n (%)
  TEAE: Urobilin Urine Present: 1 (<1%) n (%)
  TEAE: Vascular Auscultatory Investigations: 0 n (%)
  TEAE: Vascular Tests NEC (Incl Blood Pressure): 3 (1%) n (%)
  TEAE: Vasovagal Attack: 1 (<1%) n (%)
  TEAE: Viral Infection NOS: 2 (<1%) n (%)
  TEAE: Viral Infections NEC: 7 (3%) n (%)
  TEAE: Vomiting NOS: 9 (4%) n (%)
  TEAE: Weight Decreased: 1 (<1%) n (%)
  TEAE: Weight Increased: 6 (2%) n (%)
  TEAE: White Blood Cell Analyses: 4 (2%) n (%)
  TEAE: White Blood Cell Count Decreased: 1 (<1%) n (%)
  TEAE: White Blood Cells Urine Positive: 1 (<1%) n (%)
[2]
  TEAE leading to permanent discontinuation: Abdominal Distension: 2 (<1%) n (%)
  TEAE leading to permanent discontinuation: Abdominal Pain Aggravated: 1 (<1%) n (%)
  TEAE leading to permanent discontinuation: Abdominal Pain Lower: 0 n (%)
  TEAE leading to permanent discontinuation: Abdominal Pain NOS: 5 (2%) n (%)
  TEAE leading to permanent discontinuation: Abdominal Pain Upper: 1 (<1%) n (%)
  TEAE leading to permanent discontinuation: Alanine Aminotransferase Increased: 1 (<1%) n (%)
  TEAE leading to permanent discontinuation: Angina Pectoris: 1 (<1%) n (%)
  TEAE leading to permanent discontinuation: Appendicitis: 1 (<1%) n (%)
  TEAE leading to permanent discontinuation: Asthma Aggravated: 1 (<1%) n (%)
  TEAE leading to permanent discontinuation: Asthma NOS: 1 (<1%) n (%)
  TEAE leading to permanent discontinuation: Back Pain: 3 (1%) n (%)
  TEAE leading to permanent discontinuation: Bladder Prolapse: 0 n (%)
  TEAE leading to permanent discontinuation: Blood Bilirubin Increased: 1 (<1%) n (%)
  TEAE leading to permanent discontinuation: Blood Pressure Increased: 1 (<1%) n (%)
  TEAE leading to permanent discontinuation: Blood Urine Present: 1 (<1%) n (%)
  TEAE leading to permanent discontinuation: Bone Neoplasm Malignant: 1 (<1%) n (%)
  TEAE leading to permanent discontinuation: Cardiac Disorders: 1 (<1%) n (%)
  TEAE leading to permanent discontinuation: Chest Discomfort: 0 n (%)
  TEAE leading to permanent discontinuation: Chest Pain: 0 n (%)
  TEAE leading to permanent discontinuation: Chest Wall Pain: 0 n (%)
  TEAE leading to permanent discontinuation: Colitis Ischaemic: 0 n (%)
  TEAE leading to permanent discontinuation: Constipation: 7 (3%) n (%)
  TEAE leading to permanent discontinuation: Cough: 0 n (%)
  TEAE leading to permanent discontinuation: Dehydration: 1 (<1%) n (%)
  TEAE leading to permanent discontinuation: Depression: 0 n (%)
  TEAE leading to permanent discontinuation: Diarrhoea Aggravated: 1 (<1%) n (%)
  TEAE leading to permanent discontinuation: Diarrhoea Haemorrhagic: 0 n (%)
  TEAE leading to permanent discontinuation: Diarrhoea NOS: 4 (2%) n (%)
  TEAE leading to permanent discontinuation: Dizziness: 0 n (%)
  TEAE leading to permanent discontinuation: Dyspepsia: 1 (<1%) n (%)
  TEAE leading to permanent discontinuation: Ear and Labyrinth Disorders: 1 (<1%) n (%)
  TEAE leading to permanent discontinuation: Epigastric Discomfort: 0 n (%)
  TEAE leading to permanent discontinuation: Eructation: 1 (<1%) n (%)
  TEAE leading to permanent discontinuation: Eye Disorders: 0 n (%)
  TEAE leading to permanent discontinuation: Faecal Abnormality NOS: 1 (<1%) n (%)
  TEAE leading to permanent discontinuation: Faecal Impaction: 0 n (%)
  TEAE leading to permanent discontinuation: Faecal Incontinence: 0 n (%)
  TEAE leading to permanent discontinuation: Faeces Hard: 1 (<1%) n (%)
  TEAE leading to permanent discontinuation: Fatigue: 3 (1%) n (%)
  TEAE leading to permanent discontinuation: Fibroma NOS: 0 n (%)
  TEAE leading to permanent discontinuation: Flatulence: 2 (<1%) n (%)
  TEAE leading to permanent discontinuation: Gastric Irritation: 1 (<1%) n (%)
  TEAE leading to permanent discontinuation: Gastrointestinal Disorders: 24 (9%) n (%)
  TEAE leading to permanent discontinuation: Gastrointestinal Motility Disorder NOS: 0 n (%)
  TEAE leading to permanent discontinuation: General Disorders and Administration Site Conditions: 3 (1%) n (%)
  TEAE leading to permanent discontinuation: Haemorrhoidal Haemorrhage: 0 n (%)
  TEAE leading to permanent discontinuation: Hallucination NOS: 0 n (%)
  TEAE leading to permanent discontinuation: Hallucination, Auditory: 0 n (%)
  TEAE leading to permanent discontinuation: Headache NOS: 1 (<1%) n (%)
  TEAE leading to permanent discontinuation: Headache NOS Aggravated: 1 (<1%) n (%)
  TEAE leading to permanent discontinuation: Heart Rate Increased: 1 (<1%) n (%)
  TEAE leading to permanent discontinuation: Hepatobiliary Disorders: 1 (<1%) n (%)
  TEAE leading to permanent discontinuation: Hepatosplenomegaly NOS: 1 (<1%) n (%)
  TEAE leading to permanent discontinuation: Hiatus Hernia: 1 (<1%) n (%)
  TEAE leading to permanent discontinuation: Investigations: 5 (2%) n (%)
  TEAE leading to permanent discontinuation: Irritable Bowel Syndrome Aggravated: 1 (<1%) n (%)
  TEAE leading to permanent discontinuation: Lethargy: 0 n (%)
  TEAE leading to permanent discontinuation: Metabolism and Nutrition Disorders: 1 (<1%) n (%)
  TEAE leading to permanent discontinuation: Migraine NOS: 1 (<1%) n (%)
  TEAE leading to permanent discontinuation: Muscle Cramps: 2 (<1%) n (%)
  TEAE leading to permanent discontinuation: Musculoskeletal and Connective Tissue Disorders: 5 (2%) n (%)
  TEAE leading to permanent discontinuation: Nausea: 3 (1%) n (%)
  TEAE leading to permanent discontinuation: Neoplasms Benign, Malignant and Unspecified (Incl Cysts and Polyps): 2 (<1%) n (%)
  TEAE leading to permanent discontinuation: Nervous System Disorders: 4 (2%) n (%)
  TEAE leading to permanent discontinuation: Pregnancy, Puerperium and Perinatal Conditions: 1 (<1%) n (%)
  TEAE leading to permanent discontinuation: Pruritus NOS: 1 (<1%) n (%)
  TEAE leading to permanent discontinuation: Psychiatric Disorders: 0 n (%)
  TEAE leading to permanent discontinuation: Psychotic Disorder NOS: 0 n (%)
  TEAE leading to permanent discontinuation: Rash Macular: 0 n (%)
  TEAE leading to permanent discontinuation: Rash NOS: 0 n (%)
  TEAE leading to permanent discontinuation: Rectal Disorder NOS: 0 n (%)
  TEAE leading to permanent discontinuation: Rectal Haemorrhage: 2 (<1%) n (%)
  TEAE leading to permanent discontinuation: Rectal Tenesmus: 0 n (%)
  TEAE leading to permanent discontinuation: Renal and Urinary Disorders: 0 n (%)
  TEAE leading to permanent discontinuation: Respiratory, Thoracic and Mediastinal Disorders: 2 (<1%) n (%)
  TEAE leading to permanent discontinuation: Skin and Subcutaneous Tissue Disorders: 1 (<1%) n (%)
  TEAE leading to permanent discontinuation: Somnolence: 1 (<1%) n (%)
  TEAE leading to permanent discontinuation: Stomach Discomfort: 0 n (%)
  TEAE leading to permanent discontinuation: Suicidal Ideation: 0 n (%)
  TEAE leading to permanent discontinuation: Urticaria NOS: 0 n (%)
  TEAE leading to permanent discontinuation: Vertigo: 1 (<1%) n (%)
  TEAE leading to permanent discontinuation: Visual Acuity Reduced: 0 n (%)
  TEAE leading to permanent discontinuation: Vomiting NOS: 1 (<1%) n (%)
  TEAE leading to permanent discontinuation: White Blood Cells Urine Positive: 1 (<1%) n (%)
  Total Number of Subjects with at Least One TEAE Leading to Discontinuation of Study Medication: 33 (13%) n (%)
[3]
  TEAE leading to permanent discontinuation: Benign Ovarian Tumour*: 0 n (%)
  TEAE leading to permanent discontinuation: Breast Cancer NOS*: 0 n (%)
  TEAE leading to permanent discontinuation: Ovarian Cancer NOS*: 1 (<1%) n (%)
  TEAE leading to permanent discontinuation: Ovarian Cystadenofibroma*: 0 n (%)
  TEAE leading to permanent discontinuation: Pregnancy NOS*: 1 (<1%) n (%)
[4]
  TEAE: Female Reproductive Tract Infections*: 2 (1%) n (%)
  TEAE: Prostate Examination Abnormal*: 1 (1%) n (%)
  TEAE: Smear Cervix Abnormal*: 1 (<1%) n (%)
  TEAE: Vaginal Candidiasis*: 1 (<1%) n (%)
  TEAE: Vaginitis Bacterial NOS*: 1 (<1%) n (%)
  TEAE: Vaginitis*: 1 (<1%) n (%)
  TEAE: Vaginosis Fungal NOS*: 1 (<1%) n (%)
Overall
  TEAE: Abdominal Discomfort: 1 (<1%) n (%)
  TEAE: Abdominal Distension: 15 (3%) n (%)
  TEAE: Abdominal Pain Aggravated: 4 (<1%) n (%)
  TEAE: Abdominal Pain Lower: 10 (2%) n (%)
  TEAE: Abdominal Pain NOS: 35 (7%) n (%)
  TEAE: Abdominal Pain Upper: 11 (2%) n (%)
  TEAE: Abdominal Rebound Tenderness: 1 (<1%) n (%)
  TEAE: Abdominal Tenderness: 13 (2%) n (%)
  TEAE: Abdominal Therapeutic Procedures NEC: 1 (<1%) n (%)
  TEAE: Abdominoplasty: 1 (<1%) n (%)
  TEAE: Abnormal Chest Sounds NOS: 1 (<1%) n (%)
  TEAE: Abnormal Reflexes: 1 (<1%) n (%)
  TEAE: Acne NOS: 1 (<1%) n (%)
  TEAE: Acnes: 1 (<1%) n (%)
  TEAE: Acquired Hypothyroidism: 2 (<1%) n (%)
  TEAE: Acrochordons: 1 (<1%) n (%)
  TEAE: Adenomyosis*: 1 (<1%) n (%)
  TEAE: Age Related Issues: 1 (<1%) n (%)
  TEAE: Alanine Aminotransferase Increased: 14 (3%) n (%)
  TEAE: Allergic Conditions NEC: 3 (<1%) n (%)
  TEAE: Allergies to Foods, Food Additives, Drugs and Other Chemicals: 2 (<1%) n (%)
  TEAE: Allergy to Insect Sting: 1 (<1%) n (%)
  TEAE: Alopecia: 1 (<1%) n (%)
  TEAE: Alopecias: 1 (<1%) n (%)
  TEAE: Amenorrhoea NOS*: 1 (<1%) n (%)
  TEAE: Anaemia NOS: 1 (<1%) n (%)
  TEAE: Anaemias NEC: 1 (<1%) n (%)
  TEAE: Anal and Rectal Disorders NEC: 1 (<1%) n (%)
  TEAE: Anal and Rectal Pains: 4 (<1%) n (%)
  TEAE: Anal and Rectal Signs and Symptoms: 4 (<1%) n (%)
  TEAE: Angina Pectoris: 3 (<1%) n (%)
  TEAE: Animal Bite: 1 (<1%) n (%)
  TEAE: Anorexia: 2 (<1%) n (%)
  TEAE: Anxiety: 8 (1%) n (%)
  TEAE: Anxiety Aggravated: 3 (<1%) n (%)
  TEAE: Anxiety Symptoms: 12 (2%) n (%)
  TEAE: Apocrine and Eccrine Gland Disorders: 3 (<1%) n (%)
  TEAE: Appendicitis: 1 (<1%) n (%)
  TEAE: Appetite Disorders: 2 (<1%) n (%)
  TEAE: Arrhythmia NOS: 1 (<1%) n (%)
  TEAE: Arthralgia: 13 (2%) n (%)
  TEAE: Arthritis NOS: 3 (<1%) n (%)
  TEAE: Arthritis NOS Aggravated: 1 (<1%) n (%)
  TEAE: Arthropathies NEC: 6 (1%) n (%)
  TEAE: Arthropod Bite: 2 (<1%) n (%)
  TEAE: Arthropod Sting: 1 (<1%) n (%)
  TEAE: Aspartate Aminotransferase Increased: 7 (1%) n (%)
  TEAE: Asthenic Conditions: 15 (3%) n (%)
  TEAE: Asthma Aggravated: 1 (<1%) n (%)
  TEAE: Asthma NOS: 2 (<1%) n (%)

Source: patent publication US20070093520A1, “Method of treatment of diarrhea-predominant irritable bowel syndrome in a subject” (priority 2005, published 2007)
